These results are taken from patent publication EP0203441A2, “Substituted benzoquinolizines, process for their preparation and their use as medicaments” (BAYER AG, priority 1985, dated 1986).

The subject of this assay is ketaminanästhesierten Katze. Put plainly: Effect on venous capacity (plethysmograph) and mean arterial pressure in the anaesthetised cat. The format is in vivo. The note with it: Dosis 0,1 mg/kg i.v., ketamine-anaesthetised cat. An excerpt: Die Wirkung der erfindungsgemäßen Stoffe auf die Venenkapazität wird an der narkotisierten Katze mittels eines Plethysmographen gemessen. Als Vergleich wird in jedem Versuch als Standardsubstanz Natrium-Nitroprussid untersucht.

With `CCOc1ccc2c(c1)CCN1CCC(Nc3ccccc3NC(C)=O)CC21` (single isomer, unassigned) [Beispiel 26], the art.Mitteldruck result is “Ø”.
